Data from patent US8211929B2, “Pyrimidine derivatives as kinase modulators and method of use” (Exelixis, Inc., priority 2004, dated 2012).

Experiments:
[1] = target: T1, (Homo sapiens, UniProt P08069); experiment: IGF1R kinase assay (LCCA), IGF 0P; type: biochemical; conditions: IGF1R kinase LCCA assay
T1 construct: human IGF1R kinase domain residues M954-C1367; made in house; host or cells: baculovirus expression (insect cells)
Method: (§1) Kinase activity and compound inhibition are investigated using one or more of the three assay formats described below. The ATP concentrations for each assay are selected to be close to the Michaelis-Menten constant (KM) for each individual kinase. Dose-response experiments are performed at 10 different inhibitor concentrations in a 384-well plate format. […] Y=Min+(Max−Min)/(1+(X/IC50)^H) Equation (2)
(§2) IGF1R kinase biochemical activity was assessed using a Luciferase-Coupled Chemiluminescent Kinase assay (LCCA) format. Kinase activity was measured as the percent ATP remaining following the kinase reaction. Remaining ATP was detected by luciferase-luciferin-coupled chemiluminescence. Specifically, the reaction was initiated by mixing test compounds, 3 μM ATP, 4 μM poly EY peptide and 4 nM IGF1R (baculovirus expressed human IGF1R kinase domain residues M954-C1367) in a 20 uL assay buffer (20 mM Tris-HCL pH7.5, 10 mM MgCl2, 0.02% Triton X-100, 1 mM DTT, 2 mM MnCl2). The mixture is incubated at ambient temperature for 2 hours after which 20 uL luciferase-luciferin mix is added and the chemiluminescent signal read using a Wallac Victor^2 reader.

IGF 3P = target: T2, IGF 3P (Homo sapiens, UniProt P08069); experiment: IGF1R kinase assay (LCCA), IGF 3P; type: biochemical; conditions: IGF1R kinase LCCA assay
T2 construct: human IGF1R kinase domain residues M954-C1367; made in house; host or cells: baculovirus expression (insect cells)
T2 sequence (P08069 954-1367): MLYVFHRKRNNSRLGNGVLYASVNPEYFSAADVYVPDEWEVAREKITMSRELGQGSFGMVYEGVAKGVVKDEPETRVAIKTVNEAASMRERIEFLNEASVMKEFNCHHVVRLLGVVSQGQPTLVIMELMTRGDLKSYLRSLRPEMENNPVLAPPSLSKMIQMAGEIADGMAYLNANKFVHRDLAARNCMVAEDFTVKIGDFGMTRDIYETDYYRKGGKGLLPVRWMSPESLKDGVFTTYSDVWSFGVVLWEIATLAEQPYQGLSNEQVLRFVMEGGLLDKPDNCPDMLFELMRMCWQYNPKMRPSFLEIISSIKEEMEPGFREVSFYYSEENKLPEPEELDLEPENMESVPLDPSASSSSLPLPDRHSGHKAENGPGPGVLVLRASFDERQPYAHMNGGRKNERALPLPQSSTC
Method: as §1, §2

T1 sequence (P08069 954-1367): as above

| SMILES | IC50 [1] | IC50 (IGF 3P) | IC50 ([1]; IGF 0P) | IC50 (IGF 3P; IGF 3P) |
| --- | --- | --- | --- | --- |
| CC(C)c1cc(Nc2nc(NCc3cc(-c4ccccc4)no3)ncc2Br)[nH]n1 [Example 10] | 50 to 500 nM | 50 to 500 nM |  |  |
| Brc1cnc(NCc2cc(-c3ccccc3)no2)nc1Nc1cc(C2CC2)[nH]n1 [Example 14] | 50 to 500 nM | 50 to 500 nM |  |  |
| CC(C)(C)c1cc(Nc2nc(NCc3cc(-c4ccccc4)no3)ncc2Br)n[nH]1 [Example 16] | 50 to 500 nM | 500 to 5000 nM |  |  |
| Cc1cc(Nc2nc(NCc3cc(-c4ccccc4)no3)ncc2Br)[nH]n1 [Example 19] | 500 to 5000 nM | 500 to 5000 nM |  |  |
| Brc1cnc(NC2CCc3ccccc32)nc1Nc1cc(C2CC2)[nH]n1 (stereo not drawn) [Example 25] | 50 to 500 nM | 500 to 5000 nM |  |  |
| Brc1cnc(NC2CCCc3ccccc32)nc1Nc1cc(C2CC2)[nH]n1 (stereo not drawn) [Example 34] | 50 to 500 nM | 500 to 5000 nM |  |  |
| CN(C)C(=O)Oc1cccc(Nc2ncc(Br)c(Nc3cc(C4CC4)n[nH]3)n2)c1 [Example 35] | 50 to 500 nM | 50 to 500 nM |  |  |
| CN1CCN(C(=O)Cc2ccc(Nc3ncc(Br)c(Nc4cc(C5CC5)n[nH]4)n3)cc2)CC1 [Example 37] | 500 to 5000 nM | 50 to 500 nM |  |  |
| CCN(CC)CCNc1cc(Nc2cc(C3CC3)[nH]n2)nc(NCc2cc(-c3ccccc3)no2)n1 [Example 45] | < 50 nM | < 50 nM |  |  |
| Cc1cc(Nc2cc(C3CC3)n[nH]2)nc(Nc2ccc3cc(C(=O)NCCN4CCCC4)ccc3c2)n1 [Example 49] | 50 to 500 nM | < 50 nM |  |  |
| Cc1cc(Nc2cc(C3CC3)[nH]n2)nc(NCc2cc(C(C)C)no2)n1 [Example 50] | 500 to 5000 nM | < 50 nM |  |  |
| Cc1cc(Nc2cc(C3CC3)n[nH]2)nc(Nc2ccc(CCC(=O)NCCCN3CCCCC3)cc2)n1 [Example 51] | > 5000 nM | < 50 nM |  |  |
| CC(C)c1cc(CNc2ncc(Br)c(Nc3cc(C4CC4)[nH]n3)n2)on1 [Example 65] | 500 to 5000 nM | < 50 nM |  |  |
| Brc1cc(CNc2ncc(Br)c(Nc3cc(C4CC4)[nH]n3)n2)on1 [Example 72] | 500 to 5000 nM | 50 to 500 nM |  |  |
| Brc1cnc(Nc2ccc(N3CCOCC3)nc2)nc1Nc1cc(C2CC2)n[nH]1 [Example 81] | 500 to 5000 nM | 50 to 500 nM |  |  |
| Cc1cc(Nc2cc(C3CC3)[nH]n2)nc(NCc2cc(C3CCCCC3)no2)n1 [Example 82] | 50 to 500 nM | 50 to 500 nM |  |  |
| Brc1ccccc1Nc1ncc(Br)c(Nc2cc(C3CC3)n[nH]2)n1 [Example 83] | 50 to 500 nM | 50 to 500 nM |  |  |
| FC(F)(F)Oc1ccccc1Nc1ncc(Br)c(Nc2cc(C3CC3)n[nH]2)n1 [Example 84] | 50 to 500 nM | 50 to 500 nM |  |  |
| NS(=O)(=O)c1ccc(Nc2ncc(Br)c(Nc3cc(C4CC4)n[nH]3)n2)cc1 [Example 91] | 50 to 500 nM | 50 to 500 nM |  |  |

| SMILES | IC50 [1] | IC50 (IGF 3P) | IC50 ([1]; IGF 0P) | IC50 (IGF 3P; IGF 3P) |
| --- | --- | --- | --- | --- |
| Cc1c(Br)cccc1Nc1ncc(Br)c(Nc2cc(C3CC3)[nH]n2)n1 [Example 95] | 50 to 500 nM | 50 to 500 nM |  |  |
| Brc1cnc(Nc2ccccc2I)nc1Nc1cc(C2CC2)n[nH]1 [Example 96] | 50 to 500 nM | 50 to 500 nM |  |  |
| Clc1ccccc1Nc1ncc(Cl)c(Nc2cc(C3CC3)[nH]n2)n1 [Example 101] | 50 to 500 nM | 50 to 500 nM |  |  |
| CN(C)c1cc(Nc2cc(C3CC3)[nH]n2)nc(NCc2cc(-c3ccccc3)no2)n1 [Example 110] | 50 to 500 nM | 50 to 500 nM |  |  |
| Cc1cc(Nc2cc(C3CC3)n[nH]2)nc(Nc2ccc(CCC(=O)N(C)C)cc2)n1 [Example 111] | 500 to 5000 nM | 50 to 500 nM |  |  |
| Cc1cc(Nc2ccnc(Nc3ccc(N4CCOCC4)cc3)n2)no1 [Example 113] | 500 to 5000 nM | 50 to 500 nM |  |  |
| CC(C)(C)c1cc(Nc2nc(Nc3ccccc3)ncc2Br)n[nH]1 [Example 116] | 500 to 5000 nM | 50 to 500 nM |  |  |
| CC(C)CNc1ncc(Br)c(Nc2cc(C3CC3)[nH]n2)n1 [Example 118] | 500 to 5000 nM | 50 to 500 nM |  |  |
| Fc1ccc(Nc2ncc(Br)c(Nc3cc(C4CC4)n[nH]3)n2)c(Br)c1 [Example 121] | 50 to 500 nM | 50 to 500 nM |  |  |
| Brc1cnc(Nc2cccc3ccccc23)nc1Nc1cc(C2CC2)[nH]n1 [Example 130] | 50 to 500 nM | 50 to 500 nM |  |  |
| Brc1cnc(Nc2ccc3[nH]ccc3c2)nc1Nc1cc(C2CC2)n[nH]1 [Example 132] | 50 to 500 nM | 50 to 500 nM |  |  |
| Cc1cc(C)cc(Nc2ncc(Br)c(Nc3cc(C4CC4)n[nH]3)n2)c1 [Example 134] | 500 to 5000 nM | 50 to 500 nM |  |  |
| Cc1ncc(CNc2ncc(Br)c(Nc3cc(C4CC4)[nH]n3)n2)s1 [Example 135] | 500 to 5000 nM | 50 to 500 nM |  |  |
| Brc1cnc(NCc2ccco2)nc1Nc1cc(C2CC2)n[nH]1 [Example 138] | 50 to 500 nM | 50 to 500 nM |  |  |
| CC(C)(C)OC(=O)N1CC[C@H](NC(=O)c2cccc(Nc3ncc(Br)c(Nc4cc(C5CC5)n[nH]4)n3)c2)C1 [Example 141] | 500 to 5000 nM | 50 to 500 nM |  |  |
| Cc1ccc(CNc2ncc(Br)c(Nc3cc(C4CC4)n[nH]3)n2)o1 [Example 142] | 500 to 5000 nM | 50 to 500 nM |  |  |
| CC(C)(C)OC(=O)N1CC[C@@H](NC(=O)c2ccc(Nc3ncc(Br)c(Nc4cc(C5CC5)n[nH]4)n3)cc2)C1 [Example 145] | 500 to 5000 nM | 50 to 500 nM |  |  |
| COc1ccc(C)cc1Nc1ncc(Br)c(Nc2cc(C3CC3)[nH]n2)n1 [Example 147] | 500 to 5000 nM | 50 to 500 nM |  |  |
| c1cc(Nc2cc(C3CCCC3)n[nH]2)nc(Nc2ccc(N3CCOCC3)cc2)n1 [Example 151] | 500 to 5000 nM | 50 to 500 nM |  |  |

Now from value to compound:

| IC50 [1] | IC50 (IGF 3P) | IC50 ([1]; IGF 0P) | IC50 (IGF 3P; IGF 3P) | SMILES |
| --- | --- | --- | --- | --- |
| 50 to 500 nM | 50 to 500 nM |  |  | c1ccc(-c2cc(CNc3nc(Nc4cc(C5CC5)n[nH]4)cc(N4CCCC4)n3)on2)cc1 [Example 12] |
| 50 to 500 nM | < 50 nM |  |  | CCN(CC)CCCNc1cc(Nc2cc(C3CC3)[nH]n2)nc(NCc2cc(-c3ccccc3)no2)n1 [Example 42] |
| 50 to 500 nM | < 50 nM |  |  | COc1cc(Nc2ncc(Br)c(Nc3cc(C)on3)n2)cc(OC)c1 [Example 53] |
| 500 to 5000 nM | < 50 nM |  |  | CC(=O)Nc1ccc(Cl)c(Nc2ncc(Br)c(Nc3cc(C)on3)n2)c1 [Example 57] |
|  |  | 500 to 5000 nM | < 50 nM | CCN(CC)CCNC(=O)CCc1ccc(Nc2ncc(Br)c(Nc3cc(C)on3)n2)cc1 [Example 58] |
| 50 to 500 nM | < 50 nM |  |  | CCN(CC)CCNC(=O)c1ccc2cc(Nc3nc(C)cc(Nc4cc(C5CC5)n[nH]4)n3)ccc2c1 [Example 59] |
| 50 to 500 nM | < 50 nM |  |  | CCN(CC)CCCNc1nc(Nc2ccccc2Cl)nc(Nc2cc(C3CC3)n[nH]2)c1Cl [Example 66] |
| 50 to 500 nM | 50 to 500 nM |  |  | CN(C)C(=O)CCc1ccc(Nc2ncc(Br)c(Nc3cc(C4CC4)n[nH]3)n2)cc1 [Example 76] |
| 50 to 500 nM | 50 to 500 nM |  |  | Brc1cnc(Nc2ccc(N3CCOCC3)cc2)nc1Nc1cc(-c2ccco2)[nH]n1 [Example 80] |
| 500 to 5000 nM | 50 to 500 nM |  |  | CN1CCN(C(=O)CCc2ccc(Nc3ncc(Br)c(Nc4cc(C5CC5)[nH]n4)n3)cc2)CC1 [Example 85] |
| 500 to 5000 nM | 50 to 500 nM |  |  | Cc1cc(Nc2nc(Nc3ccccc3)ncc2Br)[nH]n1 [Example 90] |
| 50 to 500 nM | 50 to 500 nM |  |  | CC(C)(C)OC(=O)NCc1ccc(Nc2ncc(Br)c(Nc3cc(C4CC4)[nH]n3)n2)cc1 [Example 92] |
| 500 to 5000 nM | 50 to 500 nM |  |  | CN1CCN(C(=O)CCc2cccc(Nc3ncc(Br)c(Nc4cc(C5CC5)n[nH]4)n3)c2)CC1 [Example 100] |
| 50 to 500 nM | 50 to 500 nM |  |  | Brc1cnc(Nc2ccc3c(c2)OCCO3)nc1Nc1cc(C2CC2)n[nH]1 [Example 104] |
| 500 to 5000 nM | 50 to 500 nM |  |  | CCN(CC)CCCNC(=O)CCc1cccc(Nc2ncc(Br)c(Nc3cc(C4CC4)n[nH]3)n2)c1 [Example 107] |
| 50 to 500 nM | 50 to 500 nM |  |  | N#Cc1ccc(Nc2ncc(Cl)c(Nc3cc(C4CC4)[nH]n3)n2)cc1 [Example 117] |
| 500 to 5000 nM | 50 to 500 nM |  |  | CN1CCN(C(=O)c2ccc(Nc3ncc(Br)c(Nc4cc(C5CC5)n[nH]4)n3)cc2)CC1 [Example 124] |
| 50 to 500 nM | 50 to 500 nM |  |  | Cc1cc(Nc2cc(C3CC3)n[nH]2)nc(Nc2ccc(CC#N)cc2)n1 [Example 125] |
| 500 to 5000 nM | 50 to 500 nM |  |  | CN1CCN(C(=O)c2cccc(Nc3ncc(Br)c(Nc4cc(C5CC5)n[nH]4)n3)c2)CC1 [Example 128] |
| 500 to 5000 nM | 50 to 500 nM |  |  | c1cc(Nc2cc(C3CC3)[nH]n2)nc(NCc2cc(C3CCCCC3)no2)n1 [Example 129] |
| 500 to 5000 nM | 50 to 500 nM |  |  | CSc1ccccc1Nc1ncc(Br)c(Nc2cc(C3CC3)n[nH]2)n1 [Example 131] |
| 500 to 5000 nM | 50 to 500 nM |  |  | Brc1cnc(Nc2cc(C3CC3)n[nH]2)nc1Nc1cc(C2CC2)n[nH]1 [Example 133] |
| 500 to 5000 nM | 50 to 500 nM |  |  | O=S(=O)(c1ccc(Nc2ncc(Br)c(Nc3cc(C4CC4)n[nH]3)n2)cc1)N1CCOCC1 [Example 140] |
| 500 to 5000 nM | 50 to 500 nM |  |  | Clc1cc(Br)ccc1Nc1ncc(Br)c(Nc2cc(C3CC3)[nH]n2)n1 [Example 143] |
| 500 to 5000 nM | 500 to 5000 nM |  |  | Cc1cnc(Nc2ccc(C(=O)NC3CCN(C)CC3)cc2)nc1Nc1cc(C2CC2)n[nH]1 [Example 157] |
